Results taken from PMC5216056 (Nature Communications, 2017).
“And” between values parts separate entries of the source, which are not always exact repeats. Equal values may be shown once. Read-outs that look alike come from different tables or passages of the source.

Tests used:
hABHD12 = molecular target: T1, hABHD12 (Homo sapiens, UniProt Q8N2K0); assay: ABHD12 activity; assay type: biochemical
T1 construct: expressed in transfected cells
T1 sequence (Q8N2K0 1-398): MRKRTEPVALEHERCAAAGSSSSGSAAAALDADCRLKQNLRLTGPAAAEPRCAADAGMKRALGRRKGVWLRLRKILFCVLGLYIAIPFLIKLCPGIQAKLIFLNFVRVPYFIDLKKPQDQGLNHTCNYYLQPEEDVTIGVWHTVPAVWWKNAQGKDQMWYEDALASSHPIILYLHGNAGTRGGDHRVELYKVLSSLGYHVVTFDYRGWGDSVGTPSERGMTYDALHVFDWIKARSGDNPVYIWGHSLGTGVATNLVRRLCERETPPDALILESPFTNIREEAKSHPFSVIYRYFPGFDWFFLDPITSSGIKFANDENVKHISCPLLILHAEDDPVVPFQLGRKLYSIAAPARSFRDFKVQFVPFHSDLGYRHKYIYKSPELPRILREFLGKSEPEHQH
Excerpt: HEK293T cells were obtained from American Type Culture Collection (ATCC, Manassas, VA, USA). Lipofectamine 2000 was obtained from Life Technologies (Carlsbad, CA, USA) and geneticin from InvivoGen. Cell culture medium, FBS, and cell culture supplements were from Invitrogen (Carlsbad, CA, USA). pCMV6-AC-hABHD6 and pCMV6-XL4-hABHD12 were a kind gift from Prof Jarmo T. Laitinen. hABHD12 sequence was subsequently inserted in a pcDNA3.1 plasmid in order to generate a stable cell line. The effect of CB2R ligands on ABHD6 and ABHD12 hydrolytic activity was determined using cell homogenate from hABHD6 and hABHD12 overexpressing HEK293T cells (40 μg total protein per condition). Samples were pre-incubated with the compounds (10 μM in the screening assay and concentrations in the range 1 nM—50 μM for the dose-response curves) in […] (pH=7.6) buffer containing 0.1%(w/v) BSA. DMSO was used as vehicle control and WWL70 10 μM or THL 20 μM as positive controls. [^3H]-2-OG (10 μM final concentration) was added and after incubation of 5 min at 37 °C, the reaction was stopped by the addition of 400 μl of ice-cold CHCl3:MeOH (1:1). The samples were vortex and centrifuged (16,100g 10 min 4 °C). Aliquots (200 μl) of the aqueous phase were assayed for tritium content by liquid scintillation spectroscopy. The values obtained for each measurement were corrected for non-specific hydrolysis (non-ABHD6 mediated) by subtracting the signal obtained in the hydrolysis of [^3H]- 2-OG by non-transfected HEK293T.

alpha 1A (h) = molecular target: T2, alpha 1A (h) (Homo sapiens, UniProt P35348); assay: CEREP panel; assay type: binding; settings: 10 µM
T2 construct: CEREP
T2 sequence (P35348 1-466): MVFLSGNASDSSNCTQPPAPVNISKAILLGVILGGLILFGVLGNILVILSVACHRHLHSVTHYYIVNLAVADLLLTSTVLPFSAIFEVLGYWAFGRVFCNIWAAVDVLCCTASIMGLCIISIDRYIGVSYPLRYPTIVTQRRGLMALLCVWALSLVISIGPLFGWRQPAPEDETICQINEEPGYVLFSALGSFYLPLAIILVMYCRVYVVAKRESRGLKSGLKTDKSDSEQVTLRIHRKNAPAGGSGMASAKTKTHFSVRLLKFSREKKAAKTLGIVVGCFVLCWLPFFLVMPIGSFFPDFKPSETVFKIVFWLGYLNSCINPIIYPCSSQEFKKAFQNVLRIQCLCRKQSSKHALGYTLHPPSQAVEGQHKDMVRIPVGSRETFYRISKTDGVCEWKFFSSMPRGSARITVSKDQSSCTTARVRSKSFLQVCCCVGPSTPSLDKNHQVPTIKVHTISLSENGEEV

mCB1R = molecular target: T3, mCB1R (Mus musculus, UniProt P47746); assay: biochemical; assay type: binding; settings: mouse brain membranes
T3 construct: from tissue; host or cells: brain of male C57BL/6J mice
T3 sequence (P47746 whole entry): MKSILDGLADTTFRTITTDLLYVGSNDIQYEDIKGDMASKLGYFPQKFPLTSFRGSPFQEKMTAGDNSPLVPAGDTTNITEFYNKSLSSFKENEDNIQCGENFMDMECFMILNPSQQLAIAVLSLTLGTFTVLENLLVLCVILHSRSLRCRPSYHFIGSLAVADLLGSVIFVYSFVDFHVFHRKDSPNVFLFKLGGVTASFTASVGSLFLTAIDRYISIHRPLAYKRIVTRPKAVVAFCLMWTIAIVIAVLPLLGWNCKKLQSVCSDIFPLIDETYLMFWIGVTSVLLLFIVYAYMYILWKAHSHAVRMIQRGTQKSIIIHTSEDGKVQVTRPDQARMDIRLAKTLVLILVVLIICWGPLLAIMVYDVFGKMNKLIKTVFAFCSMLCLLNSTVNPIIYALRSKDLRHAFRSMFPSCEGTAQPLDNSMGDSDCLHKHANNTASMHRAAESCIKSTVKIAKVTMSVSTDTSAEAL

hCB2R [1] = molecular target: T4, hCB2R (Homo sapiens, UniProt P34972); assay: biochemical; assay type: binding; settings: CHO membranes; Leiden, HU210 and SR144528 from Roche; read-out: pKi ± SEM hCB2R (converted)
T4 sequence (P34972 whole entry): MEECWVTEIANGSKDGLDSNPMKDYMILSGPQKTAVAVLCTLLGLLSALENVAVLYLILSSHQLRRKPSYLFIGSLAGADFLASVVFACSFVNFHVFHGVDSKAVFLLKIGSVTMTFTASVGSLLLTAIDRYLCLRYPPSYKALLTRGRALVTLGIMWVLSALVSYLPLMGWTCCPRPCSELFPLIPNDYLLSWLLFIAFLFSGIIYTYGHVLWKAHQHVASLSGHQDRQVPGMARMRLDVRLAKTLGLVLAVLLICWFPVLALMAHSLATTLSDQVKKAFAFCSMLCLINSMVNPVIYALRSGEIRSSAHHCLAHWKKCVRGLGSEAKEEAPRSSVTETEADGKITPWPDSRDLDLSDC

hCB2R [2] = molecular target: T4, hCB2R; parameters: expressed in transfected cells; host or cells: Flp-In-293 (Invitrogen #R750-07), pcDNA5/FRT; settings: hCB2R
Rat recombinant TRPM8 = molecular target: T5, Rat recombinant TRPM8 (Rattus norvegicus, UniProt Q8R455); assay: TRP channel [Ca2+]i assay; assay type: cell-based; settings: icilin concentration not given; read-out: TRPM8 IC50 for antagonism of icilin
T5 construct: expressed in transfected cells; host or cells: HEK293 (TRPM8-HEK-293, gift from Mario van der Stelt)
T5 sequence (Q8R455 whole entry): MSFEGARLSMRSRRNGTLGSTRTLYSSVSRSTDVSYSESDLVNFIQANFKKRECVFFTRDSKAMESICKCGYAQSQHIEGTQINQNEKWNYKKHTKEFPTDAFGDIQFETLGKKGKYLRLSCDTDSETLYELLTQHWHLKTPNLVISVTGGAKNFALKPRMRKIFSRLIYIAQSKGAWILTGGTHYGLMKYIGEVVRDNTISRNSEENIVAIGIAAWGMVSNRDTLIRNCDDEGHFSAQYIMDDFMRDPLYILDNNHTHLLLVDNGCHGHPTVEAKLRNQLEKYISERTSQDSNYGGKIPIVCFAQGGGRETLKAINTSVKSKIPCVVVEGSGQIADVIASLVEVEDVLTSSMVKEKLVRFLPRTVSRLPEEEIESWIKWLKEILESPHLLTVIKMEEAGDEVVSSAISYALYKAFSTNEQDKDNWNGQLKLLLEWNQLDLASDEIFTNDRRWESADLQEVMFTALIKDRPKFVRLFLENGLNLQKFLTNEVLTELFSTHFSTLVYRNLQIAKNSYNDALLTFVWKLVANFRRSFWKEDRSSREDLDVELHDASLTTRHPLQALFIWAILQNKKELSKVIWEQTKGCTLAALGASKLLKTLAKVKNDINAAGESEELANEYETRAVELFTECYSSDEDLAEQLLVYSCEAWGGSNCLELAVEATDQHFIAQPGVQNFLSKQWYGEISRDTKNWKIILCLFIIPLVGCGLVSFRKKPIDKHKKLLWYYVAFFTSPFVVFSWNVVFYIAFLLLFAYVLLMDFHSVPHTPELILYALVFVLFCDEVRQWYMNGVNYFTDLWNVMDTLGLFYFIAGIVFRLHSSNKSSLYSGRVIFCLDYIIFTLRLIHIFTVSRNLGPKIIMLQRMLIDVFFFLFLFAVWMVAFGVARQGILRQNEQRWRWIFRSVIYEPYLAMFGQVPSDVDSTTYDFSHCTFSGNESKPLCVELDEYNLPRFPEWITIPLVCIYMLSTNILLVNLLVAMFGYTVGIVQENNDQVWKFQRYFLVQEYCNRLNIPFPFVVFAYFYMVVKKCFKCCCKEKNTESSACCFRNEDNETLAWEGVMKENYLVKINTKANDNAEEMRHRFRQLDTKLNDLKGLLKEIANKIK

## Cc1c(C(=O)NN2CCCCC2)nn(-c2ccc(Cl)cc2Cl)c1-c1ccc(I)cc1 [AM251]
hABHD12; read-out: ABHD12 IC50 (95% CI), full dose-response
  IC50: 1.6 µM
Alpha 1A (h)
  % inhibition alpha 1A (h): 6%

## SR144528
hABHD12; single point
  ABHD12 % inhibition: < 25%
Alpha 1A (h)
  % inhibition alpha 1A (h): -1%

## CCCn1c(C)c(C(=O)c2cccc3ccccc23)c2ccccc21 [JWH015]
mCB1R
  pKi ± SEM mCB1R: 5.94 ± 0.15
Alpha 1A (h)
  % inhibition alpha 1A (h): 16%

## CCCCC/C=C\C/C=C\C/C=C\C/C=C\CCCC(=O)OC(CO)CO [2-AG, 2-arachidonoyl glycerol]
mCB1R; read-out: pKi ± SEM mCB1R (converted)
  Ki: 0.102 µM
hCB2R [1]
  Ki: ~0.1 µM and 0.115 µM
hCB2R [2]
  GIRK-GTPγS bias factor (BF): 154.53
  GIRK-GTPγS ΔΔlogR: 2.19 ± 0.44
  GIRK-cAMP bias factor (BF): 178.65
  GIRK-cAMP ΔΔlogR: 2.25 ± 0.21
  GTPγS-cAMP bias factor (BF): 1.16
  GTPγS-cAMP ΔΔlogR: 0.06 ± 0.46
  LogR GIRK: 6.40
  LogR GTPγS: 4.63
  LogR cAMP: 6.99
  LogR pERK: 6.37
  LogR β-AR: 5.9
  pERK-GIRK bias factor (BF): 0.06
  pERK-GIRK ΔΔlogR: -1.2 ± 0.29
  pERK-GTPγS bias factor (BF): 9.68
  pERK-GTPγS ΔΔlogR: 0.99 ± 0.5
  pERK-cAMP bias factor (BF): 11.19
  pERK-cAMP ΔΔlogR: 1.05 ± 0.31
  β-AR-GIRK bias factor (BF): 0.07
  β-AR-GIRK ΔΔlogR: -1.14 ± 0.19
  β-AR-GTPγS bias factor (BF): 11.27
  β-AR-GTPγS ΔΔlogR: 1.05 ± 0.45
  β-AR-cAMP bias factor (BF): 13.03
  β-AR-cAMP ΔΔlogR: 1.12 ± 0.23
  β-AR-pERK bias factor (BF): 1.16
  β-AR-pERK ΔΔlogR: 0.07 ± 0.3
hCB2R [2]; reference CP55940
  ΔLogR GIRK: -1.47
  ΔLogR GTPγS: -3.65
  ΔLogR cAMP: -3.72
  ΔLogR pERK: -2.67
  ΔLogR β-AR: -2.6
hCB2R [2]; relative effectiveness
  RE GIRK: 0.03
  RE GTPγS: 0.0002
  RE cAMP: 0.0002
  RE pERK: 0.002
  RE β-AR: 0.003

## Cc1c(C(=O)NN2CCCCC2)nn(-c2ccc(Cl)cc2Cl)c1-c1ccc(Cl)cc1 [SR141716A]
hABHD12
  IC50: 6.1 µM
Rat recombinant TRPM8
  IC50: 0.041 ± 0.0109 µM
